# In publication PMC6826694, “Validation of Hepatocellular Carcinoma Experimental Models for TGF-β Promoting Tumor Progression” (Cancers, 2019):
# How the values were obtained:
# SK-HEP1-Luc cells = test system: SK-HEP1-Luc cells; design: method as in PMID 26549110; details: oral administration, female BALB/C nu/nu, orthotopic SK-HEP1-Luc; ref [45]; cited from earlier work
# [1] = Plasma pharmacokinetics of Galunisertib after single oral dose (HPLC-FL); assay type: in vivo, mouse; details: for AUC(0-t) / Cmax / Tmax / half-life / k el: mouse, single oral dose, female CD-1 mice, plasma
# Description: (§1) Firstly, we quantified the concentration of LY2157299 in plasma of female CD-1 mice by a liquid chromatographic method, in order to define the concentration for the therapeutic window. Therefore, the drug was administered orally and given in two formulations. Group 1 (15 mice) received Galunisertib as suspension (75 mg/kg) prepared by mixing Galunisertib with 1% Carboxymethylcellulose, 0.5% Sodium Lauryl Sulfate, 0.085% Povidone, followed by sonication in a water bath sonicator or with a probe sonicator until a fine suspension with a final concentration of 7.5 mg/mL was achieved. Group 2 (15 mice) received Galunisertib as solution (150 mg/kg solution) prepared by dissolving the drug in 10% of dimethylsulfoxide (DMSO), and then adding sequentially polyethylene glycol (PEG)400 (30%), ethanol (EtOH) (10%), saline (30%) and HCl 0.01 M (20%) at a final pH of ~6 under mixing to a final concentration of 15 mg/mL.
# The volume of administration was 10mL/kg for single treatment. Physical appearance, behavior as well as general and local clinical signs of the mice were monitored throughout the experiment. […] At predefined time points (0.5, 1, 2, 4, 8 h after administration), the animals were deeply anesthetized by isoflurane followed by a complete retro-orbital bleeding. The blood was collected in heparinized tubes and centrifuged at 6000× g for 5–10 minutes within 15 minutes after collection. The plasma was transferred to tubes and stored at −20 °C until analysis.
# To quantify the concentration of Galunisertib, plasma was measured by a HPLC/Fluorimetric (HPLC-FL) method.
# The pharmacokinetic parameters (Kelim, T1/2, and Tmax.) represented as mean ± SD of three animals/time for both Galunisertib formulations were determined using the MKModel by Nick Holford software Version 4, (Biosoft, Ferguson, MO, USA) or equivalent pharmacokinetic programs (Table 4).
# [2] = Appearance / solubility of Galunisertib in the dosing formulations; assay type: physicochemical
# Description: as §1
# HepG2-Luc cells = test: Orthotopic HCC model, intrahepatic HepG2-Luc cells in NOG mice, tumor growth by IVIS bioluminescence; assay type: in vivo, mouse; details: for Bioluminescence (average radiance, IVIS) vs vehicle (GP1): NOG mice, HepG2-Luc
# Description: To evaluate in vivo the effect of Galunisertib (LY2157299) on tumor growth rate we used an orthotopic model: HCC was induced by intrahepatic injections of 1 × 10^6 HepG2-Luc cells in 7–8 weeks old, female NOG mice. The inoculated animals presented a clear engraftment of the liver cancer. The tumor growth was monitored weekly with IVIS Spectrum (PerkinElmer) through intraperitoneal administration of D-Luciferin (Sigma, 150 mg/10 mL/kg) until the end of the experiment.
# Two weeks after the injection of HepG2-Luc cells, 45 mice were selected based on the bioluminescence signal and randomized into three groups of 15 animals. The first group (control group) was treated with 10 mL/kg of a […] vehicle solution (10% DMSO, 30% PEG400, 10% EtOH, 30% saline solution, 20% HCl 0.01 M, final pH 6.0). The second group (GP2) received 10 mL/kg Galunisertib solution via gastric probe (OS) and in the third group of mice (GP3) the drug was administered intravenously (IV) with 5 mL/kg Galunisertib encapsulated in polymeric nanocapsules. This nanoencapsulation was used to optimize the formulation in order to maximize therapeutic efficiency and minimize systemic toxicity. The nanocapsules were prepared from biocompatible and biodegradable polymers as described previously.
# After sacrificing the animals, a complete necropsy was performed and documented by photos. Before sacrificing the animals, they were imaged by IVIS Spectrum to identify bioluminescent tissues for explantation.
# Figure 4 Treatment of NOD/Shi-Scid/IL-2Rγ^null […] (NOG) mice with luciferin-labeled hepatocellular carcinoma (HCC) with vehicle or two Galunisertib preparations. (A). Bioluminescence images of NOG mice prior injected intrahepatically with HepG2-Luc cells at Day 23 and 44 after vehicle injection (GP1), or Galunisertib administration via gavage (GP2) or intravenous route (GP3). (B) Average Radiance (IVIS) versus time after tumor inoculation. Data were averaged over the animals which reached the end of experiment (GP1: n = 15; GP2: n = 14; GP3: n = 10).
# [3] = test system: TGF-β1, TGF-β RI and TGF-β RII mRNA; test: qRT-PCR mRNA expression in tumor tissues of the orthotopic model; assay type: in vivo, mouse; details: for mRNA expression of TGF-βI, TGF-β RI and TGF-β RII levels vs controls: tumor tissues, qRT-PCR
# Text: No difference was found comparing the two Galunisertib formulations.
# HepG2 cells = test system: HepG2 cells; design: method as in PMID 23826206; details: exogenous TGF-β1 in vitro, ref [22]; cited from earlier work
# CD44 and THY1 = test system: CD44 and THY1; design: method as in PMID 29515105, PMID 26057634; details: HLE and HLF cells in vitro; ref [24, 25]; cited from earlier work
# [4] = test system: invasive HCC cells (HLE and HLF); design: method as in PMID 29515105, PMID 26057634; details: in vitro and in ex vivo human HCC samples; ref [24, 25]; cited from earlier work
# SKIL and PMEPA1 mRNA = details: HCC tumor tissues; ref [26]; cited from earlier work
# [5] = test system: pancreatic ductal adenocarcinoma; design: method as in PMID 30866547; details: ref [17]; cited from earlier work
# TGF-β1 SMAD2/3 pathway = test system: TGF-β1 SMAD2/3 pathway; design: method as in PMID 29957876; details: CC14-induced mice; ref [20]; cited from earlier work
# CD133 and Vimentin = test system: CD133 and Vimentin; design: method as in PMID 29805610; details: ref [23]; cited from earlier work
# [6] = test system: TGF-β linked EMT transition; details: female BALB/C nude mice, subcutaneous Hg2 cells; ref [44]; cited from earlier work
structure (smiles),measurement,setting,value
Cc1cccc(-c2[nH]c(CNc3ccccc3F)nc2-c2ccc3ncnn3c2)n1 [EW-7197],Effect on tumor growth,SK-HEP1-Luc cells,ALK 5 inhibitor interferes with tumor growth
Cc1cccc(-c2nn3c(c2-c2ccnc4ccc(C(N)=O)cc24)CCC3)n1 [Galunisertib],Cmax and AUClast higher than the 75 mg/kg suspension,"[1]; 150 mg/kg solution vs 75 mg/kg suspension, considering the dose correcting factor",2.5 fold
same,AUC(0-t),[1]; Solution (150 mg/kg),15500 ng·h/mL
same,Cmax,[1]; Solution (150 mg/kg),19000 ng/mL
same,Tmax,[1]; Solution (150 mg/kg),30 min
same,half-life,[1]; Solution (150 mg/kg),103 min
same,k el,[1]; Solution (150 mg/kg),0.000164 s⁻¹
same,AUC(0-t),[1]; Suspension (75mg/kg),3110 ng·h/mL
same,Cmax,[1]; Suspension (75mg/kg),3330 ng/mL
same,Tmax,[1]; Suspension (75mg/kg),30 min
same,half-life,[1]; Suspension (75mg/kg),84 min
same,k el,[1]; Suspension (75mg/kg),0.000136 s⁻¹
same,Appearance / solubility in formulation,"[2]; new formulation, 150 mg/kg solution: 10% DMSO, 30% PEG400, 10% EtOH, 30% saline, 20% HCl 0.01 M, pH ~6, 15 mg/mL",completely clear solution
same,Appearance / solubility in formulation,"[2]; old formulation (75 mg/kg): 1% Carboxymethylcellulose, 0.5% Sodium Lauryl Sulfate, 0.085% Povidone, 7.5 mg/mL",only moderately soluble
same,"Bioluminescence (average radiance, IVIS) vs vehicle (GP1)",HepG2-Luc cells; GP2 (LY × OS): 10 mL/kg Galunisertib solution via gastric probe,no significant difference in bioluminescence
same,"Bioluminescence (average radiance, IVIS) vs vehicle (GP1)","HepG2-Luc cells; GP3 (LY × IV): 5 mL/kg Galunisertib encapsulated in polymeric nanocapsules, intravenous",no significant difference in bioluminescence
same,Effect on tumor regression or prevention of metastasis,"HepG2-Luc cells; treated groups (GP2 gavage, GP3 intravenous) vs control, treatment period Day 16–Day 44",no effect on tumor regression or prevention of metastasis
same,mRNA level of the drug target compared to controls treated with vehicle,"[3]; orthotopic HepG2-Luc model, NOG mice",statistically significant reduction (p = 0.03)
same,"mRNA expression of TGF-βI, TGF-β RI and TGF-β RII levels vs controls",[3]; mice treated with Galunisertib solution,significant (p < 0.05) down-regulation
same,"mRNA expression of TGF-βI, TGF-β RI and TGF-β RII levels vs controls",[3]; mice treated with encapsulated Galunisertib,significant (p < 0.05) down-regulation
same,"Effect on TGF-β1-induced changes (flat, larger cells; reduced E-cadherin in cell–cell contact)",HepG2 cells,reversed
same,Expression of CD44 and THY1,CD44 and THY1,reducing the expression
same,"Colony formation, liver spheroids and invasive growth capacity",[4],decrease
same,SKIL and PMEPA1 mRNA expression,SKIL and PMEPA1 mRNA,strongly down-regulated
same,"Effect on mast cell-mediated resistance to GEM/NAB (reduced apoptosis, TGF-β signaling, invasion)",[5],restored
NC(=O)c1ccc(-c2nc(-c3ccc4c(c3)OCO4)c(-c3ccccn3)[nH]2)cc1 [SB431542],Effect on liver fibrosis and TGF-β1 SMAD2/3,TGF-β1 SMAD2/3 pathway,significantly attenuated
same,Expression of CD133 and Vimentin,CD133 and Vimentin,upregulated
C[S+]([O-])CCCCN=C=S (stereo not shown) [Sulforaphane],Effect on TGF-β linked EMT transition,[6],Sulforaphane inhibits TGF-β linked EMT transition
